Starred links: 1 amine or outer side, 2 acyl side, 3 side chain; linkers in the order of their positions; H or OH if unused. Non-standard residues stand in square brackets, D forms with d. Residues, ends and D or L forms follow the SMILES beside them. Phe(4-(5-CO2H-2-pyrimidyl)) = N[C@@H](Cc1ccc(-c2ncc(C(=O)O)cn2)cc1)C(=O)O; Phe(4-(4-Ac-piperazinyl)) = CC(=O)N1CCN(c2ccc(C[C@H](N)C(=O)O)cc2)CC1; Trp(4-Cl)(βS-Me) = C[C@@H](c1c[nH]c2cccc(Cl)c12)[C@H](N)C(=O)O; dPro(4R-(4-pyridylmethyl)) = O=C(O)[C@H]1C[C@@H](Cc2ccncc2)CN1; Trp(βS-Me,4-F) = C[C@@H](c1c[nH]c2cccc(F)c12)[C@H](N)C(=O)O; Bip(4'-COOH) = N[C@@H](Cc1ccc(-c2ccc(C(=O)O)cc2)cc1)C(=O)O; Ala(1-bicyclo(1.1.1)pentyl) = N[C@@H](CC12CC(C1)C2)C(=O)O; dPro(4R-Bzl(4-F)) = O=C(O)[C@H]1C[C@@H](Cc2ccc(F)cc2)CN1; dPro(3S-(4-F-Bn)) = O=C(O)[C@@H]1NCC[C@@H]1Cc1ccc(F)cc1; Phe(2-Cl,4-COOH) = N[C@@H](Cc1ccc(C(=O)O)cc1Cl)C(=O)O; Bip(4'-Cl) = N[C@@H](Cc1ccc(-c2ccc(Cl)cc2)cc1)C(=O)O; 1Nal(3S-Me) = C[C@@H](c1cccc2ccccc12)[C@H](N)C(=O)O; Ala(pyrimidin-5-yl) = N[C@@H](Cc1cncnc1)C(=O)O; Phe(4-COOH) = N[C@@H](Cc1ccc(C(=O)O)cc1)C(=O)O; Pro(cis-4-F) = O=C(O)[C@@H]1C[C@H](F)CN1; Ala(4-THP) = N[C@@H](CC1CCOCC1)C(=O)O; X6 = O=C([C@H](Cc1ccncn1)N[*:1])[*:2]; d(αMeD) = C[C@@](N)(CC(=O)O)C(=O)O; 4Pal = N[C@@H](Cc1ccncc1)C(=O)O; aThr = C[C@H](O)[C@H](N)C(=O)O; d(αMeS) = C[C@@](N)(CO)C(=O)O; Cba = N[C@@H](CC1CCC1)C(=O)O; Dab = NCC[C@H](N)C(=O)O; Aib = CC(C)(N)C(=O)O
What follows are compounds tested against T1, IL-1β (Homo sapiens, UniProt P01584) (assay: IL-6 assay in MRC5 cells: inhibition of IL-1β induced IL-6 secretion (AlphaLISA)). Details: inhibition of IL-1β induced IL-6 secretion in MRC5 cells; read-out: MRC5 IC50.
T1 construct: purchased BioLegend 579404
T1 sequence (P01584 117-269): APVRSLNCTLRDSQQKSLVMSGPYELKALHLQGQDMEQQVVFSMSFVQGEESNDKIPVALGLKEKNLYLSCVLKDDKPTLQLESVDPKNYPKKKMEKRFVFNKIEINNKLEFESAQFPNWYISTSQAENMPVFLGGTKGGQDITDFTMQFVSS
Format: cell-based
In short: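 Compound was pre-incubated 1 h at ambient temperature with recombinant human IL-1β at 2λ EC80 before adding human lung fibroblast MRC5 cells (3000/well) in EMEM with 0.025% BSA. After overnight culture at 37 °C, 5% CO2, secreted IL-6 in conditioned medium was measured by AlphaLISA; IC50 from 4-parameter logistic fits.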

Row | Structure (SMILES) | IC50 [nM]
1 | C[C@@H](c1c[nH]c2cccc(F)c12)[C@@H]1NC(=O)[C@@H]2C[C@H](F)CN2C(=O)CNC(=O)[C@H](Cc2ccc(C(=O)O)cc2)NC(=O)[C@H](CC23CC(C2)C3)NC(=O)[C@H](Cc2ccc(-c3ccc(C(=O)O)cc3)cc2)NC(=O)[C@H]2C[C@@H](Cc3ccncc3)CN2C(=O)CNC(=O)[C@H](CCN)NC(=O)[C@H](CCC(N)=O)NC(=O)[C@H](CC2CCC2)NC(=O)[C@@](C)(CC(=O)O)NC(=O)[C@H](Cc2c[nH]c3ccccc23)NC(=O)[C@H](CO)NC(=O)C(C)(C)NC1=O [Example 348] (cyclo([Bip(4'-COOH)][Ala(1-bicyclo(1.1.1)pentyl)][Phe(4-COOH)]G[Pro(cis-4-F)][Trp(βS-Me,4-F)][Aib]SW[d(αMeD)][Cba]Q[Dab]G[dPro(4R-(4-pyridylmethyl))])) | 0.018
2 | CC(C)C[C@@H]1NC(=O)[C@@](C)(CC(=O)O)NC(=O)[C@H](Cc2c[nH]c3ccccc23)NC(=O)[C@H](CO)NC(=O)C(C)(C)NC(=O)[C@H]([C@@H](C)c2c[nH]c3cccc(F)c23)NC(=O)[C@@H]2C[C@H](F)CN2C(=O)CNC(=O)[C@H](Cc2ccc(C(=O)O)cc2)NC(=O)[C@H](CC23CC(C2)C3)NC(=O)[C@H](Cc2ccc(-c3ccc(C(=O)O)cc3)cc2)NC(=O)[C@H]2C[C@@H](Cc3ccncc3)CN2C(=O)CNC(=O)[C@H](CCN)NC(=O)[C@H](CCC(N)=O)NC1=O [Example 349] (cyclo([Bip(4'-COOH)][Ala(1-bicyclo(1.1.1)pentyl)][Phe(4-COOH)]G[Pro(cis-4-F)][Trp(βS-Me,4-F)][Aib]SW[d(αMeD)]LQ[Dab]G[dPro(4R-(4-pyridylmethyl))])) | 0.017
3 | CC(=O)N1CCN(c2ccc(C[C@@H]3NC(=O)[C@H]4C[C@@H](Cc5ccncc5)CN4C(=O)CNC(=O)[C@H](CCN)NC(=O)[C@H](CCC(N)=O)NC(=O)[C@H](Cc4cncnc4)NC(=O)[C@@](C)(CO)NC(=O)[C@H](Cc4c[nH]c5ccccc45)NC(=O)[C@H](CO)NC(=O)C(C)(C)NC(=O)[C@H]([C@@H](C)c4c[nH]c5cccc(F)c45)NC(=O)[C@@H]4C[C@H](F)CN4C(=O)CNC(=O)[C@H](Cc4ccc(C(=O)O)cc4)NC(=O)[C@H](Cc4ccncc4)NC3=O)cc2)CC1 [Example 350] (cyclo([Phe(4-(4-Ac-piperazinyl))][4Pal][Phe(4-COOH)]G[Pro(cis-4-F)][Trp(βS-Me,4-F)][Aib]SW[d(αMeS)][Ala(pyrimidin-5-yl)]Q[Dab]G[dPro(4R-(4-pyridylmethyl))])) | 0.02
4 | C[C@@H](c1c[nH]c2cccc(F)c12)[C@@H]1NC(=O)[C@@H]2C[C@H](F)CN2C(=O)CNC(=O)[C@H](Cc2ccc(C(=O)O)cc2)NC(=O)[C@H](Cc2ccncc2)NC(=O)[C@H](Cc2ccc(-c3ncc(C(=O)O)cn3)cc2)NC(=O)[C@H]2C[C@@H](Cc3ccncc3)CN2C(=O)CNC(=O)[C@H](CCN)NC(=O)[C@H](CCC(N)=O)NC(=O)[C@H](CC2CCOCC2)NC(=O)[C@@](C)(CC(=O)O)NC(=O)[C@H](Cc2c[nH]c3ccccc23)NC(=O)[C@H](CO)NC(=O)C(C)(C)NC1=O [Example 351] (cyclo([Phe(4-(5-CO2H-2-pyrimidyl))][4Pal][Phe(4-COOH)]G[Pro(cis-4-F)][Trp(βS-Me,4-F)][Aib]SW[d(αMeD)][Ala(4-THP)]Q[Dab]G[dPro(4R-(4-pyridylmethyl))])) | 0.016
5 | C[C@H](O)[C@@H]1NC(=O)C(C)(C)NC(=O)[C@H]([C@@H](C)c2c[nH]c3cccc(F)c23)NC(=O)[C@@H]2C[C@H](F)CN2C(=O)CNC(=O)[C@H](Cc2ccc(C(=O)O)cc2)NC(=O)[C@H](Cc2ccncc2)NC(=O)[C@H](Cc2ccc(-c3ccc(C(=O)O)cc3)cc2)NC(=O)[C@H]2C[C@@H](Cc3ccncc3)CN2C(=O)CNC(=O)[C@H](CCN)NC(=O)[C@H](CCC(N)=O)NC(=O)[C@H](CC2CCOCC2)NC(=O)[C@@](C)(CC(=O)O)NC(=O)[C@H](Cc2c[nH]c3ccccc23)NC1=O [Example 353] (cyclo([Bip(4'-COOH)][4Pal][Phe(4-COOH)]G[Pro(cis-4-F)][Trp(βS-Me,4-F)][Aib][aThr]W[d(αMeD)][Ala(4-THP)]Q[Dab]G[dPro(4R-(4-pyridylmethyl))])) | 0.017
6 | C[C@H](O)[C@@H]1NC(=O)[C@@](C)(CC(=O)O)NC(=O)[C@H](Cc2c[nH]c3ccccc23)NC(=O)[C@H](CO)NC(=O)C(C)(C)NC(=O)[C@H]([C@@H](C)c2cccc3ccccc23)NC(=O)[C@@H]2C[C@H](F)CN2C(=O)CNC(=O)[C@H](Cc2ccc(C(=O)O)cc2Cl)NC(=O)[C@H](Cc2ccncc2)NC(=O)[C@H](Cc2ccc(-c3ccc(C(=O)O)cc3)cc2)NC(=O)[C@H]2C[C@@H](Cc3ccncc3)CN2C(=O)CNC(=O)[C@H](CCN)NC(=O)[C@H](CCC(N)=O)NC1=O [Example 354] (cyclo([Bip(4'-COOH)][4Pal][Phe(2-Cl,4-COOH)]G[Pro(cis-4-F)][1Nal(3S-Me)][Aib]SW[d(αMeD)][aThr]Q[Dab]G[dPro(4R-(4-pyridylmethyl))])) | 0.014
7 | C[C@H](O)[C@@H]1NC(=O)[C@@](C)(CC(=O)O)NC(=O)[C@H](Cc2c[nH]c3ccccc23)NC(=O)[C@H](CO)NC(=O)C(C)(C)NC(=O)[C@H]([C@@H](C)c2c[nH]c3cccc(Cl)c23)NC(=O)[C@@H]2C[C@H](F)CN2C(=O)CNC(=O)[C@H](Cc2ccc(C(=O)O)cc2Cl)NC(=O)[C@H](Cc2ccncc2)NC(=O)[C@H](Cc2ccc(-c3ccc(C(=O)O)cc3)cc2)NC(=O)[C@H]2C[C@@H](Cc3ccncc3)CN2C(=O)CNC(=O)[C@H](CCN)NC(=O)[C@H](CCC(N)=O)NC1=O [Example 355] (cyclo([Bip(4'-COOH)][4Pal][Phe(2-Cl,4-COOH)]G[Pro(cis-4-F)][Trp(4-Cl)(βS-Me)][Aib]SW[d(αMeD)][aThr]Q[Dab]G[dPro(4R-(4-pyridylmethyl))])) | 0.013

Second part, the compound after the results:

Row | IC50 [nM] | Structure (SMILES)
8 | 0.022 | C[C@@H](c1c[nH]c2cccc(F)c12)[C@@H]1NC(=O)[C@@H]2C[C@H](F)CN2C(=O)CNC(=O)[C@H](Cc2ccc(C(=O)O)cc2)NC(=O)[C@H](Cc2ccncc2)NC(=O)[C@H](Cc2ccc(-c3ccc(Cl)cc3)cc2)NC(=O)[C@H]2C[C@@H](Cc3ccncc3)CN2C(=O)CNC(=O)[C@H](CCN)NC(=O)[C@H](CCC(N)=O)NC(=O)[C@H](Cc2cncnc2)NC(=O)[C@@](C)(CC(=O)O)NC(=O)[C@H](Cc2c[nH]c3ccccc23)NC(=O)[C@H](CO)NC(=O)C(C)(C)NC1=O [Example 344] (cyclo([Bip(4'-Cl)][4Pal][Phe(4-COOH)]G[Pro(cis-4-F)][Trp(βS-Me,4-F)][Aib]SW[d(αMeD)][Ala(pyrimidin-5-yl)]Q[Dab]G[dPro(4R-(4-pyridylmethyl))]))
9 | 0.012 | C[C@@H](c1c[nH]c2cccc(F)c12)[C@@H]1NC(=O)[C@@H]2C[C@H](F)CN2C(=O)CNC(=O)[C@H](Cc2ccc(C(=O)O)cc2)NC(=O)[C@H](Cc2ccncc2)NC(=O)[C@H](Cc2ccc(-c3ccc(C(=O)O)cc3)cc2)NC(=O)[C@H]2C[C@@H](Cc3ccc(F)cc3)CN2C(=O)CNC(=O)[C@H](CCN)NC(=O)[C@H](CCC(N)=O)NC(=O)[C@H](Cc2ccncn2)NC(=O)C(C)(C)NC(=O)[C@H](Cc2c[nH]c3ccccc23)NC(=O)[C@H](CCC(=O)O)NC(=O)C(C)(C)NC1=O [Example 345] (cyclo([Bip(4'-COOH)][4Pal][Phe(4-COOH)]G[Pro(cis-4-F)][Trp(βS-Me,4-F)][Aib]EW[Aib][X6]Q[Dab]G[dPro(4R-Bzl(4-F))]))
10 | 0.01 | C[C@@H](c1c[nH]c2cccc(F)c12)[C@@H]1NC(=O)[C@@H]2C[C@H](F)CN2C(=O)CNC(=O)[C@H](Cc2ccc(C(=O)O)cc2)NC(=O)[C@H](Cc2ccncc2)NC(=O)[C@H](Cc2ccc(-c3ccc(C(=O)O)cc3)cc2)NC(=O)[C@H]2[C@@H](Cc3ccc(F)cc3)CCN2C(=O)CNC(=O)[C@H](CCN)NC(=O)[C@H](CCC(N)=O)NC(=O)[C@H](Cc2cncnc2)NC(=O)C(C)(C)NC(=O)[C@H](Cc2c[nH]c3ccccc23)NC(=O)[C@H](CCC(=O)O)NC(=O)C(C)(C)NC1=O [Example 346] (cyclo([Bip(4'-COOH)][4Pal][Phe(4-COOH)]G[Pro(cis-4-F)][Trp(βS-Me,4-F)][Aib]EW[Aib][Ala(pyrimidin-5-yl)]Q[Dab]G[dPro(3S-(4-F-Bn))]))
11 | 0.025 | CC(C)C[C@@H]1NC(=O)[C@@](C)(CO)NC(=O)[C@H](Cc2c[nH]c3ccccc23)NC(=O)[C@H](CO)NC(=O)C(C)(C)NC(=O)[C@H]([C@@H](C)c2c[nH]c3cccc(F)c23)NC(=O)[C@@H]2C[C@H](F)CN2C(=O)CNC(=O)[C@H](Cc2ccc(C(=O)O)cc2)NC(=O)[C@H](Cc2ccncc2)NC(=O)[C@H](Cc2ccc(-c3ccc(C(=O)O)cc3)cc2)NC(=O)[C@H]2C[C@@H](Cc3ccncc3)CN2C(=O)CNC(=O)[C@H](CCN)NC(=O)[C@H](CCC(N)=O)NC1=O [Example 347] (cyclo([Bip(4'-COOH)][4Pal][Phe(4-COOH)]G[Pro(cis-4-F)][Trp(βS-Me,4-F)][Aib]SW[d(αMeS)]LQ[Dab]G[dPro(4R-(4-pyridylmethyl))]))
12 | 0.023 | C[C@H](O)[C@@H]1NC(=O)C(C)(C)NC(=O)[C@H]([C@@H](C)c2c[nH]c3cccc(F)c23)NC(=O)[C@@H]2C[C@H](F)CN2C(=O)CNC(=O)[C@H](Cc2ccc(C(=O)O)cc2)NC(=O)[C@H](Cc2ccncc2)NC(=O)[C@H](Cc2ccc(-c3ccc(C(=O)O)cc3)cc2)NC(=O)[C@H]2C[C@@H](Cc3ccncc3)CN2C(=O)CNC(=O)[C@H](CCN)NC(=O)[C@H](CCC(N)=O)NC(=O)[C@H]([C@H](C)O)NC(=O)[C@@](C)(CO)NC(=O)[C@H](Cc2c[nH]c3ccccc23)NC1=O [Example 352] (cyclo([Bip(4'-COOH)][4Pal][Phe(4-COOH)]G[Pro(cis-4-F)][Trp(βS-Me,4-F)][Aib][aThr]W[d(αMeS)][aThr]Q[Dab]G[dPro(4R-(4-pyridylmethyl))]))
